Literature values in patent US20070286864A1, “Combined treatment with an EGFR kinase inhibitor and an agent that sensitizes tumor cells to the effects of EGFR kinase inhibitors” (priority 2006, published 2007).

Assays:
H292 cells = settings: erlotinib single agent (10 μM), sensitive = maximum growth inhibition greater than 50%
H1703 cells = settings: erlotinib single agent (10 μM), relatively insensitive = maximum growth inhibition less than 50%
Calu6 cells = settings: erlotinib single agent (10 μM), relatively insensitive = maximum growth inhibition less than 50%
H460 cells = settings: erlotinib single agent (10 μM), relatively insensitive = maximum growth inhibition less than 50%
H358 cells = settings: erlotinib single agent (10 μM), sensitive = maximum growth inhibition greater than 50%

## C#Cc1cccc(Nc2ncnc3cc(OCCOC)c(OCCOC)cc23)c1 [erlotinib, [6,7-bis(2-methoxyethoxy)-4-quinazolin-4-yl]-(3-ethynylphenyl)amine]
H292 cells
  sensitivity of cell line to erlotinib: sensitive
H1703 cells
  sensitivity of cell line to erlotinib: relatively insensitive
Calu6 cells
  sensitivity of cell line to erlotinib: relatively insensitive
H460 cells
  sensitivity of cell line to erlotinib: relatively insensitive
H358 cells
  sensitivity of cell line to erlotinib: sensitive
